As usually defined, the EC50 is the midpoint of the concentration-response curve.

Molecules are shown by their SMILES. Structures can show the parent of a compound that is named as a salt.

For 53 compounds, EC50 results are on record in BindingDB's records for doi:10.7270/Q2ZC817P (The Scripps Research Institute Molecular Screening Center, 2007).

The first assay deals with Sphingosine 1-phosphate receptor 1 (Homo sapiens, UniProt P21453). The assay is described as follows: S1P1 agonism potentiation – cell-based, potentiator mode, 60K MLSMR set, dose response (AID 466).
Chain of Sphingosine 1-phosphate receptor 1 (P21453 whole entry): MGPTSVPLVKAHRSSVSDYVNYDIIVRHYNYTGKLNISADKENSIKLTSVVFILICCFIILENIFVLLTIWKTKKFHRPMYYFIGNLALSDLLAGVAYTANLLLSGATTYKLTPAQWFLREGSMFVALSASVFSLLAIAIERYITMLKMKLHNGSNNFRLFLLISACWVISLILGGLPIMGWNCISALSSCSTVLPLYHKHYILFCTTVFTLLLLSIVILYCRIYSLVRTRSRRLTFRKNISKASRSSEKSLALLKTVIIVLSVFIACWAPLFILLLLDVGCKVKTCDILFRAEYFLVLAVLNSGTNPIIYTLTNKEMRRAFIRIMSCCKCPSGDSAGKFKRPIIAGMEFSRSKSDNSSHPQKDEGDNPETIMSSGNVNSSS
Conditions: not given
Turning to `Cc1ccc(OCc2nc(-c3ccccc3)no2)c(C)c1` [5-[(2,4-dimethylphenoxy)methyl]-3-phenyl-1,2,4-oxadiazole], the EC50 turned out to be 1.96 µM.
Still for that read-out and setting: with `COc1ccccc1OCc1nc(C#N)c(N2CC(C)CC(C)C2)o1` (stereo not drawn) [5-(3,5-dimethyl-1-piperidinyl)-2-[(2-methoxyphenoxy)methyl]-4-oxazolecarbonitrile] the figure was 2.55 µM.
The same measure, in the same setting: the result for `Cc1ccc(C(C)C)c(OCc2nc(-c3nonc3N)no2)c1` [4-[5-[(5-methyl-2-propan-2-yl-phenoxy)methyl]-1,2,4-oxadiazol-3-yl]-1,2,5-oxadiazol-3-amine] reads 1.12 µM; that for `Clc1ccccc1C1=Nn2c(nnc2-c2ccncc2)SC1` [6-(2-chlorophenyl)-3-(4-pyridyl)-7H-[1,2,4]triazolo[3,4-b][1,3,4]thiadiazine], 5.66 µM.
In the case of `Cc1ccc(-n2ncc3c(N4CCCC(C)C4)ncnc32)c(C)c1` (stereo not drawn) [1-(2,4-dimethylphenyl)-4-(3-methylpiperidin-1-yl)-1H-pyrazolo[3,4-d]pyrimidine], the EC50 amounted to 8.81 µM.
On to `COc1ccc(OC)c(-c2cc(C(=O)Nc3c(C)nn(Cc4ccc(Cl)cc4)c3C)no2)c1` [MLS000087191], for which the EC50 was over 10 µM.
Same read-out and setting: the result for `c1ccc2c(c1)oc1c(NCc3ccc4c(c3)OCO4)ncnc12` [MLS000057790] reads 6.46 µM; that for `O=C(Nc1ccc(S(=O)(=O)NCc2ccco2)cc1)c1ccc2ccccc2n1` [MLS000098663], 6.51 µM.
In the case of `COC(=O)c1c(C)n(-c2ccc(OC)cc2)c2ccc(O)cc12` [5-hydroxy-1-(4-methoxyphenyl)-2-methyl-3-indolecarboxylic acid methyl ester], the EC50 came out at 6.86 µM.
Regarding `CC(Oc1ccccc1Br)C(=O)N1CCc2ccccc21` (stereo not drawn) [1-[2-(2-bromophenoxy)propanoyl]indoline], the EC50 is 7.23 µM.
As to `O=C(c1cc(-c2ccc(O)cc2)on1)N1CCc2ccccc2C1` [4-[3-(3,4-dihydro-1H-isoquinolin-2-ylcarbonyl)-2H-1,2-oxazol-5-ylidene]cyclohexa-2,5-dien-1-one], the EC50 was found to be 4.07 µM.
As to `Cc1cc(C(=O)Nc2sc(C)c(-c3ccc(F)cc3)c2C(N)=O)no1` [MLS000043467], the EC50 was determined as 5.47 µM.
On the same count and under the same terms, the result for `COc1ccc(-c2noc(-c3ccccc3F)n2)cc1` [5-(2-fluorophenyl)-3-(4-methoxyphenyl)-1,2,4-oxadiazole] reads 6.17 µM; that for `O=C(Nc1ccccc1C(F)(F)F)c1cc(-c2ccc(O)cc2)on1` [5-(4-hydroxyphenyl)-N-[2-(trifluoromethyl)phenyl]isoxazole-3-carboxamide], 0.778 µM.
`CCOC(=O)/C=C/S(=O)(=O)c1ccc(NC(C)=O)cc1`: the EC50 is over 10 µM.
On the same count and under the same terms, the result for `Cc1nnc2ccc(Oc3ccc(-c4ccccc4)cc3)nn12` [3-methyl-6-(4-phenylphenoxy)-[1,2,4]triazolo[4,3-b]pyridazine] reads 5.31 µM; that for `O=C(c1cc(-c2ccco2)on1)N1CCN(C(c2ccccc2)c2ccccc2)CC1` [(4-benzhydrylpiperazin-1-yl)-[5-(furan-2-yl)-1,2-oxazol-3-yl]methanone], 5.82 µM.
The same measure, in the same setting: with `Cc1cc(C(=O)CSc2nnc(-c3ccncc3)n2-c2ccccc2)c(C)n1C` [2-[(4-phenyl-5-pyridin-4-yl-1,2,4-triazol-3-yl)sulfanyl]-1-(1,2,5-trimethylpyrrol-3-yl)ethanone] the figure was 2.23 µM; with `CCCc1cc(C(=O)Nc2sc3c(c2C#N)CCC3)no1` [MLS000116386], over 95 µM.
Still for that read-out and setting: the result for `Cc1cc(C(=O)CSc2nnc(-c3ccccc3)n2-c2ccccc2)c(C)n1-c1nnc[nH]1` reads 6.13 µM; that for `Cc1ccc(-c2nc(CSCC(=O)N3CCN(c4ccccn4)CC3)c(C)o2)cc1` [2-[[5-methyl-2-(4-methylphenyl)-1,3-oxazol-4-yl]methylsulfanyl]-1-(4-pyridin-2-ylpiperazin-1-yl)ethanone], 5.99 µM.
Consider `CC(=N)C(C#N)C(=O)CSc1nnc(SCc2ccc(Cl)cc2)s1` (stereo not drawn) [(E)-3-amino-2-[2-[[5-[(4-chlorobenzyl)thio]-1,3,4-thiadiazol-2-yl]thio]acetyl]but-2-enenitrile], for which the EC50 turned out to be 9.63 µM.
The same measure, in the same setting: with `O=C(c1ccc(F)cc1)C(CN1CCOCC1)c1ccccc1` (stereo not drawn) [1-(4-fluorophenyl)-3-(4-morpholinyl)-2-phenyl-1-propanone;hydrochloride] the figure was 23.5 µM.
Still for that read-out and setting: the result for `CC(=O)Nc1ccccc1OCC(=O)c1cc(C)n(Cc2cccs2)c1C` [MLS000056239] reads 0.223 µM.
Still for that read-out and setting: with `CCc1oc2ccccc2c1C(=O)c1cc(Br)c(O)c(Br)c1` the figure was 5.13 µM; with `Nc1nnnn1N=C/C(Br)=C/c1ccccc1` [1-[[(Z)-2-bromanyl-3-phenyl-prop-2-enylidene]amino]-1,2,3,4-tetrazol-5-amine], over 10 µM; with `C=CCN1/C(=N/c2cccnc2)SCC1(O)c1ccc(C)cc1` (stereo not drawn) [(2E)-3-allyl-4-(4-methylphenyl)-2-(pyridin-3-ylimino)-1,3-thiazolidin-4-ol], 7.92 µM.
For the compound `COC(=O)c1ccc(C(c2c(N)n(CC(C)C)c(=O)[nH]c2=O)N2CCN(c3ccccc3)CC2)cc1` (stereo not drawn) [4-[[6-amino-1-(2-methylpropyl)-2,4-dioxo-5-pyrimidinyl]-(4-phenyl-1-piperazinyl)methyl]benzoic acid methyl ester], the EC50 is over 95 µM.
Still for that read-out and setting: the result for `Cc1noc(/C=C/N(C)C)c1S(=O)(=O)N1CCc2ccccc21` [(E)-2-[4-(2,3-dihydroindol-1-ylsulfonyl)-3-methyl-1,2-oxazol-5-yl]-N,N-dimethyl-ethenamine] reads over 95 µM; that for `Cc1cc(C(=O)CSc2nnc(-c3cccs3)o2)c(C)n1-c1ccccc1` [1-(2,5-dimethyl-1-phenyl-3-pyrrolyl)-2-[(5-thiophen-2-yl-1,3,4-oxadiazol-2-yl)thio]ethanone], 4.19 µM.
The same measure, in the same setting: the result for `Cn1c(C(=O)N2CCCc3ccccc32)cc2sccc21` [(3,4-Dihydro-2H-quinolin-1-yl)-(4-methyl-4H-thieno[3,2-b]pyrrol-5-yl)-methanone] reads 1.47 µM; that for `COCC(=O)Nc1cccc(C(F)(F)F)c1` [2-methoxy-N-[3-(trifluoromethyl)phenyl]acetamide], over 95 µM; that for `CCOC(=O)C1CCN(c2ncnc3c2oc2ccc(Cl)cc23)CC1` [1-(8-chloro-4-benzofuro[3,2-d]pyrimidinyl)-4-piperidinecarboxylic acid ethyl ester], over 95 µM.
Still for that read-out and setting: with `Cc1cc(C)n2nc(SCC(=O)c3cc(C)n(-c4cc(C)on4)c3C)nc2n1` [1-[2,5-dimethyl-1-(5-methyl-1,2-oxazol-3-yl)pyrrol-3-yl]-2-[(5,7-dimethyl-[1,2,4]triazolo[1,5-a]pyrimidin-2-yl)sulfanyl]ethanone] the figure was 5.63 µM.
`CCOC(=O)c1cccc2c1-c1ccccc1C2N=O` (stereo not drawn) [9-hydroximinofluorene-4-carboxylic acid ethyl ester]: the EC50 came out at 10.2 µM.
Same read-out and setting: with `C=CS(=O)(=O)c1ccc(Oc2ccc(S(=O)(=O)C=C)cc2)cc1` [1-ethenylsulfonyl-4-(4-ethenylsulfonylphenoxy)benzene] the figure was 3.31 µM.
Same read-out and setting: with `CCOC(=O)CN(C(=O)CSc1nnc(-c2cccc(OC)c2)o1)c1ccc(F)cc1` [((4-Fluoro-phenyl)-{2-[5-(3-methoxy-phenyl)-[1,3,4]oxadiazol-2-ylsulfanyl]-acetyl}-amino)-acetic acid ethyl ester] the figure was 2.11 µM; with `O=C(CSc1nnc(Cn2nnc3ccccc32)o1)N(Cc1ccc(F)cc1)c1ccccc1` [2-(5-Benzotriazol-1-ylmethyl-[1,3,4]oxadiazol-2-ylsulfanyl)-N-(4-fluoro-benzyl)-N-phenyl-acetamide], 4.86 µM; with `Oc1ccc(-c2nc(-c3ccc(O)c(O)c3)cs2)cc1`, 13.1 µM.
Same read-out and setting: with `CCc1ccc(S(=O)(=O)NCCc2csc(-c3ccccc3)n2)s1` [5-ethyl-N-[2-(2-phenyl-1,3-thiazol-4-yl)ethyl]thiophene-2-sulfonamide] the figure was 8.24 µM; with `COc1ccc(CNC(=O)c2cc3c(C)nc4ccccc4c3o2)c(OC)c1` [MLS000118441], 5.06 µM.

Staying with this assay, now noted: inactive by the depositor's call.
With `Cc1ccc(C)c(-n2nnnc2Sc2nnnn2-c2ccccc2)c1` [1-(2,5-dimethylphenyl)-5-(1-phenyltetrazol-5-yl)sulfanyltetrazole], the concentration for a half-maximal effect (EC50) was 14.8 µM.
The same measure, in the same setting: the result for `O=C(CSc1ncnc2c1oc1ccccc12)N1CCCc2ccccc21` [2-(4-benzofuro[3,2-d]pyrimidinylthio)-1-(3,4-dihydro-2H-quinolin-1-yl)ethanone] reads 10.8 µM; that for `Cc1nc(C)c(C(=O)Nc2ccc(Oc3ccccc3)cc2)o1` [2,4-dimethyl-N-(4-phenoxyphenyl)-1,3-oxazole-5-carboxamide], 10.5 µM; that for `CCc1ccc(N(CC)c2ncnc3nc[nH]c23)cc1`, 14.7 µM.
On the same count and under the same terms, with `COc1cccc(NC(=O)Nc2nnc(N3CCCCC3C)s2)c1` (stereo not drawn) [1-(3-methoxyphenyl)-3-[5-(2-methyl-1-piperidinyl)-1,3,4-thiadiazol-2-yl]urea] the figure was 11.5 µM; with `Cc1ccc(S(=O)(=O)Nc2ccc3ncccc3c2)cc1` [4-methyl-N-(6-quinolinyl)benzenesulfonamide], 10.7 µM.
On the same count and under the same terms, the result for `COc1cccc(-c2csc(N3CCN(CC(=O)Nc4ccc5c(c4)OCO5)CC3)n2)c1` [MLS000070935] reads 17.9 µM; that for `CCC(C)c1ccc2oc(-c3ccc(NC(=O)c4nnc[nH]4)cc3)nc2c1` (stereo not drawn) [N-[4-(5-sec-butyl-1,3-benzoxazol-2-yl)phenyl]-1H-1,2,4-triazole-3-carboxamide], 12.7 µM.
As to `CCN(CC)c1ccc(-n2c(C)c(C(C)=O)c(C(C)=O)c2C)cc1` [1-[1-[4-(diethylamino)phenyl]-4-ethanoyl-2,5-dimethyl-pyrrol-3-yl]ethanone], the concentration for a half-maximal effect (EC50) was found to be 10.4 µM.
With `C=CCn1c(C)cc(C(=O)CSc2nc3ccccc3o2)c1C` [1-(1-allyl-2,5-dimethyl-pyrrol-3-yl)-2-(1,3-benzoxazol-2-ylthio)ethanone], the EC50 worked out at 10.3 µM.
Same read-out and setting: the result for `COc1ccc(-c2cc(C(=O)NC3CCCC3)no2)cc1OC` [MLS000087117] reads 13.7 µM; that for `COc1ccc(OCCCSc2ncccn2)cc1` [2-[3-(4-methoxyphenoxy)propylsulfanyl]pyrimidine], 48.2 µM.
